From US20050009886A1, “1,4-Dihydropyridine derivative with a guaiacoxypropanolamine and/or phenoxypropanolamine moiety” (priority 1998, published 2005)

How the values were obtained:
β-adrenoreceptor (β1) [1] = molecular target: T1, β-adrenoreceptor (β1) (Rattus norvegicus, UniProt P18090); assay: Isolated right atrium, L-isoproterenol-induced heart rate increase (pA2); parameters: species or system Wistar rat; details: for β1 Value of pA2 Right Atrium: vs L-isoproterenol, Schild plot
T1 construct: The right and left atria were then separated; from tissue; host or cells: isolated rat right atrium (spontaneously beating) and left atrium (electrically paced)
T1 sequence (P18090 whole entry): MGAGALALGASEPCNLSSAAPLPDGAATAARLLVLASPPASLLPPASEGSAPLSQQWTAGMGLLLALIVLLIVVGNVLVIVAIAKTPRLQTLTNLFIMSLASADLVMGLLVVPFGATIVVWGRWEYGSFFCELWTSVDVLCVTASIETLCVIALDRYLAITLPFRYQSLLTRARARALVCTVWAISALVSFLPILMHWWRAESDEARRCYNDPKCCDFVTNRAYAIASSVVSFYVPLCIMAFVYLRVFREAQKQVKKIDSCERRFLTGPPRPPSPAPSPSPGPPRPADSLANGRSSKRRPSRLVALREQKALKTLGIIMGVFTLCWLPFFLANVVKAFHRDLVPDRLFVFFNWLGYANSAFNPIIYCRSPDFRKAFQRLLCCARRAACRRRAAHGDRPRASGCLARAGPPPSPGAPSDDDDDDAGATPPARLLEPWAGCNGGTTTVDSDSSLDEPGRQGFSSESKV
Description: The right and left atria were then separated. The spontaneously-beating right atria was clipped on both end by heart shaped clips, where one end was fixed at the bottom of 10 ml of tissue bath made of physiological saline solution, and temperature maintained at 37° C. The other end of the atria was connected to a force transducer, and isometric contractions and beating rate of the right atria were recorded by COULBOURN AT-High-Speed VideoFigure. After the samples were given 250 mg of contractions and reach equilibrium the following experiments were carried out: • (a) β-adrenoceptor blocking action
Cumulative administration interval was when the previous concentration reached its greatest effect, the next concentration would be immediately given.
The equation is as follows: pA2=−Log KB Log(DRADJ−1)=nlog[B]−LogKB [formula]
[B] Test compound concentration in moles • KB: equilibrium dissociation constant • n: value of slope DR: test EC50 divided by control EC50 • CF: EC50 of second or third control groups divided by EC50 of first control group (c) Effect of Compound on the Increase of Spontaneous Beating in Right Atrium Caused by CaCl2

right atrium = details: 10^−7, 10^−6, and 10^−5M; CaCl2 3.0, 6.0, 9.0 mM
Description: The right atrium of the rats was allowed to equilibrate in Kreb's solution for at least 60 minutes. When the spontaneous beating rate had reached a certain stability, CaCl2 of different concentrations (3.0, 6.0, and 9.0 mM) were cumulatively administered, and the changes in the spontaneous beating of right atrium were observed. […] 30 minutes later, different concentrations (3.0, 6.0, and 9.0 mM) were cumulatively administered, and the changes in the spontaneous beating of right atrium were observed again.

[2] = Heart rate and blood pressure in living rat; type: in vivo, Wistar rats
From the text: Male Wistar rats, weighing 200˜300 g were abdominal anaesthetized with pentobarbital sodium. Tracheal was cannulated to maintain normal respiration. Polyethylene tube was inserted into the left femoral vein to facilitate drug administration. A 3-way stopcock was used, with one end connected to a syringe for drug injection, while the other end was connected to the syringe filled with physiological saline. The latter was used to prevent residual drugs in the polyethylene tube after injection, which would affect experimental accuracy.
The right femoral artery was also inserted with polyethylene, and a 3-way stopcock was used too, where one end was connected to heparin solution to prevent embolism. The other end was connected to a Disposable Diaphragm Dome, TA1019, and linked to a transducer. Through an amplifier, a recorder recorded the overall and average arterial pressure; heart rate to evaluate the effect of drug on blood pressure and heart rate.

isolated atria = assay: Direct effect (intrinsic sympathomimetic activity) on reserpine pretreated isolated atria; parameters: species or system Wistar rat
Description: Wistar rats of weight between 200˜300 gm were used. 18˜24 hours before the experiment, 5 mg/kg of reserpine was injected via abdominal cavity to remove all endogenous catecholamines. Prior experiment, Wistar rats were sacrificed, the heart was immediately removed and placed in Kreb's solution aerated with air mixture and maintained at room temperature. The right and left atria were carefully separated.

Calcium = Calcium antagonism (pKCa^−1, Table 2)
β2 = molecular target: T2, β2 (Cavia porcellus, UniProt Q8K4Z4); assay: Guinea pig's isolated tracheal, L-isoproterenol relaxation of carbachol contraction (pA2); details: for β2 Value of pA2 Tracheal: vs L-isoproterenol, carbachol 10^−6 M contraction
T2 construct: a portion of tracheal approximately 4 cm long was removed; from tissue; host or cells: isolated trachea of reserpine-pretreated guinea pigs
T2 sequence (Q8K4Z4 whole entry): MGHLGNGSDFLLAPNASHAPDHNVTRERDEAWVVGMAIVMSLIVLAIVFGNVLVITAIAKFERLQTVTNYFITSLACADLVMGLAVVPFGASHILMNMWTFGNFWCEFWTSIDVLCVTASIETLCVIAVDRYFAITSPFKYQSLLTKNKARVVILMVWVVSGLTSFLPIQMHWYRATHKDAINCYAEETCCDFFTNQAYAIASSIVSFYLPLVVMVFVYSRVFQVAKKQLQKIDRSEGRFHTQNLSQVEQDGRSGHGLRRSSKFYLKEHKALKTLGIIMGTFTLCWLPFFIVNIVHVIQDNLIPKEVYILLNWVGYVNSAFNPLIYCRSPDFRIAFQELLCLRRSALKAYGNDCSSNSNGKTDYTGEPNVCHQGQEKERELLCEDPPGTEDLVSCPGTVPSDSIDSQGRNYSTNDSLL
Description: Guinea pigs of weight between 300˜500 gm were used. […] After the guinea pigs were sacrificed, a slit was made along the neck, and a portion of tracheal approximately 4 cm long was removed. […] The two ends of the tracheal were clamped with frog-heart shaped clamps, one end was fixed at the bottom of tissue bath filled with 20 ml of Kreb's solution, maintained at 37° C., while the other end was connected to a force transducer. Through a COULBOURN AT-High-Speed Videograph, long isometric contractions were recorded. After the sample was given 1.5 gm of tension and equilibrated, the following experiments were performed:
Then the tracheal was repeatedly washed with Kreb's solution for 20 minutes and 10−6 M of carbochol was added to cause contraction in the guinea pig's tracheal. […] This is the test group.
(b) Calculation of pA2: similar to the calculation method for isolated right atrium experiment.

β2-adrenoceptor = molecular target: T3, β2-adrenoceptor (Cavia porcellus, UniProt Q8K4Z4); assay: Direct effect (intrinsic sympathomimetic activity) on reserpine pretreated isolated tracheal; parameters: species or system guinea pig
T3 construct: a portion of tracheal approximately 4 cm long was removed; from tissue; host or cells: isolated trachea of reserpine-pretreated guinea pigs
T3 sequence (Q8K4Z4 whole entry): as above
Description: 18˜24 hours before the experiment, 5 mg/kg of reserpine was injected via abdominal cavity to remove all endogenous catecholamines. Prior experiment, guinea pigs were sacrificed, the tracheal was immediately removed and placed in Kreb's solution aerated with air mixture and maintained at room temperature of 22˜25° C. […] Then the tissue was repeatedly washed with Kreb's solution.

A7r5 cells = details: 10^−8, 10^−7, 10^−6M for 5 minutes
β-adrenoreceptor (β1) [3] = molecular target: T1, β-adrenoreceptor (β1); assay: Isolated left atrium, L-isoproterenol-induced contractility increase (pA2); parameters: species or system Wistar rat; details: for β1 Value of pA2 Left Atrium: vs L-isoproterenol, electrically stimulated
Description: The inspontaneously-beating left atrial tissue was obtained from rat's isolated right atrial tissue experiments. […] The contraction rate was 1 Hz and the resting tension 0.5 gm. After 60 minutes of equilibration, the following experiments were performed:
(a) Completion of cumulative concentration-response curve: similar to experimental method on isolated right atrium;
(b) Calculation of pA2 value: similar to calculation method on isolated right atrium.

[4] = 1 mg/kg via femoral vein, anaesthetized rat
[5] = intravenous 0.1-2.0 mg/kg, normotensive rats

## COC(=O)C1=C(C)NC(C)=C(C(=O)OC)C1c1ccc(OCC(O)CNC(C)(C)C)c(OC)c1 (centres unmarked) [Compound 1]
β-adrenoreceptor (β1) [1]
  Ratio of β1 and Calcium Antagonism: 0.12
  β1 Value of pA2 Right Atrium: 7.21 ± 0.32
β-adrenoreceptor (β1) [1]; from average pA2 difference between right atrium and tracheal
  effect on right atrium relative to tracheal (selectivity ratio of β1 type adrenoceptor): 1.32 ×
β-adrenoreceptor (β1) [1]; from pA2 difference right atrium vs tracheal
  β1/β2: 1.32
β-adrenoreceptor (β1) [1]; right atrium, 10^−6, 10^−5, and 10^−6 M as printed
  block of heart rate increment effect of L-isoproterenol: could competitively block
β-adrenoreceptor (β1) [1]; slope of Schild regression
  β1 Right Atrium (Slope): (0.94 ± 0.18)
β-adrenoreceptor (β1) [1]; listed as compound 1
  β1 Value of pA2 Right Atrium: 7.21±0.32
β-adrenoreceptor (β1) [1]; β1:β2
  selectivity on the type of β-adrenoceptor: non-selective
Right atrium
  effect on increased atrial beating rate induced by CaCl2: blocked
[2]; [4]
  Lowering of Blood Pressure: 70 ± 3 mmHg
  Reduction of Heart Rate: 30 ± 2 beats/min
[2]; intravenous 0.5 mg/kg
  effect on heart rate: a decrease in heart rate
[2]; [5]
  duration of blood pressure lowering effect: approximately 1 hour
  effect on blood pressure and heart rate: continuous dose-dependent blood pressure lowering effect without increasing heart rate
Isolated atria; cumulative administration, reserpine pretreated
  direct effect on right atrium beating rate and left atrium isometric contractions: could not increase the beating rate and isometric contractions
Isolated atria; reserpine pretreated atria
  concentration with blocking effect on beating rate and isometric contractions: ≥ 10^−5 M
Calcium
  Calcium Antagonism PKCa^−1: 7.82 ± 0.49
β2; 10^−6, 10^−5, and 10^−6 M as printed
  block of the tracheal effect of L-isoproterenol: could competitively block
β2; slope of Schild regression
  β2 Tracheal (slope): (0.84 ± 0.09)
β2
  β2 Value of pA2 Tracheal: 7.09 ± 0.54
β2; listed as compound 1
  β2 Value of pA2 Tracheal: 7.09±0.54
β2-adrenoceptor; ICI 118, 551 10^−8, 10^−9, 10^−10M for 30 minutes (nifedipine: 10^−8 M)
  tracheal relaxation after pretreatment with ICI118, 551: concentration-dependently shifting parallel to the right
β2-adrenoceptor; cumulative 10^−10˜3×10^−6 M, reserpine pretreated tracheal
  direct tracheal relaxation effect: dose-dependant tracheal relaxation effect
A7r5 cells; 10 μM BayK8644
  calcium ion influx effect of BayK8644: significantly blocked
A7r5 cells; 50 mM KCl
  calcium ion influx effect of KCl: significantly blocked
β-adrenoreceptor (β1) [3]; left atrium, 10^−6, 10^−5, and 10^−6 M as printed
  block of heart contractility increment effect of L-isoproterenol: could competitively block
β-adrenoreceptor (β1) [3]; slope of Schild regression
  β1 Left Atrium (Slope): (0.85 ± 0.02)
β-adrenoreceptor (β1) [3]
  β1 Value of pA2 Left Atrium: 6.91 ± 0.26
β-adrenoreceptor (β1) [3]; listed as compound 1
  β1 Value of pA2 Left Atrium: 6.91±0.26
